Data as given in patent publication US8853392B2, “Benzamide mGluR5 positive allosteric modulators and methods of making and using same” (Vanderbilt University, priority 2007, dated 2014).
Values joined by “and” are separate entries in the source; they are usually repeats but may differ in a detail not shown here. Equal values may be shown once. “Also recorded” adds a separate entry of the source. Read-outs that look alike come from different tables or passages of the source.

Experiments:
rat mGluR5 = biological target: T1, rat mGluR5 (Rattus norvegicus, UniProt P31424); test: potentiation of mGluR5 response to glutamate, Ca2+ fluorescence (FDSS) in HEK cells transfected with rat mGluR5; format: cell-based; conditions: for Emax: HEK293, read-out: % Glu Max
T1 construct: expressed in transfected cells; host or cells: human embryonic kidney (HEK) cells
T1 sequence (P31424 21-1203): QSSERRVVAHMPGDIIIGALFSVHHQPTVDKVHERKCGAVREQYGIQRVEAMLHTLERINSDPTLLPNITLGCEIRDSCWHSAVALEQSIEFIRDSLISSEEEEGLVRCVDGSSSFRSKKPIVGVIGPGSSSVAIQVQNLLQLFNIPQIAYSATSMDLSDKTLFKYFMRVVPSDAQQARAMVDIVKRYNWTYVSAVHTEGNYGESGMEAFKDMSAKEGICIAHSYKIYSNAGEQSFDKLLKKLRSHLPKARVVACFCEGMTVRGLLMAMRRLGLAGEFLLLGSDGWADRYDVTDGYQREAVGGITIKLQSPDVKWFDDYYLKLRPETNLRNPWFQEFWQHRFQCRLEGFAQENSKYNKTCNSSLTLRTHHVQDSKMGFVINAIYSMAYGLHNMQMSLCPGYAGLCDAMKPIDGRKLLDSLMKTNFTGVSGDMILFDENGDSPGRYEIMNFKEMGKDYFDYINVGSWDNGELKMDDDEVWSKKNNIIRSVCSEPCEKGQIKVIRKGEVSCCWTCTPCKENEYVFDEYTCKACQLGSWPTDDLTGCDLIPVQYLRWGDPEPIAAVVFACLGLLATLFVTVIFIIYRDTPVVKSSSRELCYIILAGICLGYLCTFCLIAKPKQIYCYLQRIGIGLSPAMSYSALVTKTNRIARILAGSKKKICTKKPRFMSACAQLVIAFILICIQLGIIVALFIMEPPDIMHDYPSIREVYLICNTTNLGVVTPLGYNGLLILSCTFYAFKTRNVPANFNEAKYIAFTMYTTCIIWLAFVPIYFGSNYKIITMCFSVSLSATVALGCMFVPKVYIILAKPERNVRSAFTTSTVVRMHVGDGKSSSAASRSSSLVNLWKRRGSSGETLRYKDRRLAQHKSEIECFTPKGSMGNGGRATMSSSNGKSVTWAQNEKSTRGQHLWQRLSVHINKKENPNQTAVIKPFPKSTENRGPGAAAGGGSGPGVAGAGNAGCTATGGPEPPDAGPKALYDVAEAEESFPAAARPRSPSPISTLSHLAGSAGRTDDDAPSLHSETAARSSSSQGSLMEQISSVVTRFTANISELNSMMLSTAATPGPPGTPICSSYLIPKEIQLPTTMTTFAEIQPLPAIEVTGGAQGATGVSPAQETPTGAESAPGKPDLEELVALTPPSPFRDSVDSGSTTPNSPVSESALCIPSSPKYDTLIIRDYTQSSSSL
Protocol: Human embryonic kidney (HEK) cells transfected with rat mGluR5 were plated in clear bottom assay plates for assay in a Functional Drug Screening System (FDSS). The cells were loaded with a Ca^2+-sensitive fluorescent dye (e.g., Fluo-4), and the plates were washed and placed in the FDSS instrument. After establishment of a fluorescence baseline for twelve seconds, the compounds of the present invention were added to the cells, and the response in cells was measured. Five minutes later, an mGluR5 agonist (e.g., glutamate, 3,5-dihydroxyphenylglycine, or quisqualate) was added to the cells, and the response of the cells was measured. Potentiation of the agonist response of mGluR5 by the compounds in the present invention was observed as an increase in response to non-maximal concentrations of agonist (here, glutamate) in the presence of compound compared to the response to agonist in the absence of compound.
The above described assay operated in two modes. In the first mode, a range of concentrations of the present compounds were added to cells, followed by a single fixed concentration of agonist. If a compound acted as a potentiator, an EC50 value for potentiation and a maximum extent of potentiation by the compound at this concentration of agonist was determined by non-linear curve fitting. In the second mode, several fixed concentrations of the present compounds were added to various wells on a plate, followed by a range of concentrations of agonist for each concentration of present compound; the EC50 values for the agonist at each concentration of compound were determined by non-linear curve fitting. A decrease in the EC50 value of the agonist with increasing concentrations of the present compounds (a leftward shift of the agonist concentration-response curve) is an indication of the degree of mGluR5 potentiation at a given concentration of the present compound. An increase in the EC50 value of the agonist with increasing concentrations of the present compounds (a rightward shift of the agonist concentration-response curve) is an indication of the degree of mGluR5 antagonism at a given concentration of the present compound. The second mode also indicates whether the present compounds also affect the maximum response to mGluR5 to agonists.
Human embryonic kidney (HEK) cells transfected with rat mGluR5 were plated in clear-bottomed, poly-D-lysine-coated assay plates in glutamate-glutamine-free medium growth and incubated overnight at 37° C. in 5% CO2. The following day, cells were loaded with 2 μM calcium indicator dye, fluo-4 AM, for 1 h at 37° C. Dye was removed and replaced with assay buffer containing 1× Hanks balanced salt solution (Invitrogen, Carlsbad, Calif.), 20 mM HEPES, and 2.5 mM probenecid, pH 7.4. Cell plates were then loaded into the Functional Drug Screening System 6000 (FDSS 6000, Hamamatsu, Japan). After establishment of a fluorescence baseline for twelve seconds, the compounds of the present invention were added to the cells, and the response in cells was measured. Five minutes later, an mGluR5 agonist (e.g., glutamate, 3,5-dihydroxyphenylglycine, or quisqualate) was added to the cells, and the response of the cells was measured during a 1 minute incubation with agonists. Typically, the effect of test compounds of the present invention was on an EC20 concentration of glutamate was measured. All test compounds were dissolved and diluted in 100% DMSO and then serially diluted into assay buffer for a 2.5× stock in 0.25% DMSO; stock compounds were then added to the assay for a final DMSO concentration of 0.1%. Calcium fluorescence measures were recorded as fold over basal fluorescence; raw data was then normalized to the maximal response to agonist. Potentiation of the agonist response of mGluR5 by the compounds in the present invention was observed as an increase in response to non-maximal concentrations of agonist (here, glutamate) in the presence of compound compared to the response to agonist in the absence of compound. […]

[1] = system: amphetamine-induced hyperlocomotion; test: reversal of amphetamine-induced hyperlocomotion; format: in vivo, male Sprague-Dawley rats; conditions: rats, i.p.; FIG. 8-10, 13, 14
Protocol: For example, compounds of the present invention reverse amphetamine-induced hyperlocomotion in male Sprague-Dawley rats at doses ranging from 1 to 100 mg/kg i.p. Data for three example compounds follow:
Locomotor activity can be assessed as mean distance traveled (cm) in standard 16×16 photocell testing chambers measuring 43.2 cm (L)×43.2 cm (W)×30.5 cm (H) (Med Associates, St. Albans, Vt.). Animals can be habituated to individual activity chambers for at least 60 min prior to drug administration. Following administration of appropriate drugs or vehicle, activity can be recorded for a 3 hr time period. Data can be expressed as the mean (±SEM) distance traveled recorded in 10 min intervals over the test period. The data can be analyzed using repeated measures analysis of variance (ANOVA) followed by post-hoc testing using Tukey's HSD test, when appropriate. A difference can be considered significant when p≦0.05.

[2] = maximum extent of potentiation, normalized to maximal response to glutamate, SAR tables
[3] = Table 1, EC50 for potentiating the mGluR5 receptor, unit inferred, read-out: EC50
[4] = potentiation of glutamate response, HEK cells transfected with rat mGluR5, SAR tables, read-out: EC50
[5] = in vitro potency, read-out: In vitro

Row | SMILES | EC50 (rat mGluR5; [3]) | further results
1 | O=C(c1ccc(C#Cc2cccc(F)c2)cc1)N1CCOCC1 [Compound 20j, (4-((3-fluorophenyl)ethynyl)phenyl)(morpholino)methanone] | 5.32 nM | Emax (rat mGluR5; [2]): 112%; EC50 (rat mGluR5; [4]): 5.3 nM
2 | O=C(c1ccc(C#Cc2ccc(F)cc2)cc1)N1CCOCC1 [Compound 20k, (4-((4-fluorophenyl)ethynyl)phenyl)(morpholino)methanone] | 24.7 nM | Emax (rat mGluR5; [2]): 107%; EC50 (rat mGluR5; [4]): 23.6 nM
3 | O=C(c1ccc(C#Cc2ccc(F)c(F)c2)cc1)N1CCOCC1 [Compound 20l, (4-((3,4-difluorophenyl)ethynyl)phenyl)(morpholino)methanone] | 35.1 nM | Emax (rat mGluR5; [2]): 114%; EC50 (rat mGluR5; [4]): 33.5 nM
4 | O=C(c1ccc(C#Cc2ccccc2F)cc1)N1CC(O)C1 [Compound 20m, (4-((2-fluorophenyl)ethynyl)phenyl)(3-hydroxyazetidin-1-yl)methanone] | 187 nM | Emax (rat mGluR5; [2]): 98%; EC50 (rat mGluR5; [4]): 166 nM
5 | O=C(c1ccc(C#Cc2cccc(F)c2)cc1)N1CC(O)C1 [Compound 20n, (4-((3-fluorophenyl)ethynyl)phenyl)(3-hydroxyazetidin-1-yl)methanone] | 73 nM | Emax (rat mGluR5; [2]): 104%; EC50 (rat mGluR5; [4]): 59.5 nM
6 | O=C(c1ccc(C#Cc2ccc(F)cc2)cc1)N1CC(O)C1 [Compound 20o, (4-((4-fluorophenyl)ethynyl)phenyl)(3-hydroxyazetidin-1-yl)methanone] | 162 nM | Emax (rat mGluR5; [2]): 103%; EC50 (rat mGluR5; [4]): 155 nM
7 | O=C(c1ccc(C#Cc2ccc(F)c(F)c2)cc1)N1CC(O)C1 [Compound 20p, (4-((3,4-difluorophenyl)ethynyl)phenyl)(3-hydroxyazetidin-1-yl)methanone] | 387 nM | Emax (rat mGluR5; [2]): 88%; EC50 (rat mGluR5; [4]): 314 nM
8 | O=C(c1ccc(C#Cc2ccccc2)cc1)N1CCC(O)CC1 [Compound VU13, (4-hydroxypiperidin-1-yl)(4-(phenylethynyl)phenyl)methanone] | 14.3 nM | Emax (rat mGluR5): 50%; EC50 (rat mGluR5; [5]): 13.6 nM; reversal of amphetamine-induced hyperlocomotion [1]: efficacy in reversing amphetamine-induced hyperlocomotion; also recorded: in vivo efficacy
9 | O=C(c1ccc(C#Cc2ccccc2)cc1)N1CCC(CO)CC1 [Compound VU14/C104B2, (4-(hydroxymethyl)piperidin-1-yl)(4-(phenylethynyl)phenyl)methanone] | 32.7 nM and 43.4 nM | Emax (rat mGluR5): 41%; EC50 (rat mGluR5; [5]): 29.6 nM; reversal of amphetamine-induced hyperlocomotion [1]: efficacy in reversing amphetamine-induced hyperlocomotion; also recorded: in vivo efficacy
10 | O=C(NC1CCc2ccccc21)c1ccc(C#Cc2ccccc2)cc1 (centres unmarked) [N-(2,3-dihydro-1H-inden-1-yl)-4-(phenylethynyl)benzamide] | 146 nM | –
11 | O=C(NC1Cc2ccccc2C1)c1ccc(C#Cc2ccccc2)cc1 [N-(2,3-dihydro-1H-inden-2-yl)-4-(phenylethynyl)benzamide] | 159 nM | –
12 | CN1CCCC1CCNC(=O)c1ccc(C#Cc2ccccc2)cc1 (centres unmarked) [N-(2-(1-methylpyrrolidin-2-yl)ethyl)-4-(phenylethynyl)benzamide] | 3530 nM | –
13 | CN(C)CCNC(=O)c1ccc(C#Cc2ccccc2)cc1 [N-(2-(dimethylamino)ethyl)-4-(phenylethynyl)benzamide] | 2990 nM | –
14 | O=C(NCCc1ccccc1Cl)c1ccc(C#Cc2ccccc2)cc1 [N-(2-chlorophenethyl)-4-(phenylethynyl)benzamide] | 135 nM | –
15 | O=C(NCCC1=CCCCC1)c1ccc(C#Cc2ccccc2)cc1 [N-(2-cyclohexenylethyl)-4-(phenylethynyl)benzamide] | 75.3 nM | –
16 | O=C(NCCN1CCOCC1)c1ccc(C#Cc2ccccc2)cc1 [N-(2-morpholinoethyl)-4-(phenylethynyl)benzamide] | 137 nM | –
17 | CC(C)(C)CCNC(=O)c1ccc(-c2nc(-c3ccccc3)no2)cc1 [N-(3,3-dimethylbutyl)-4-(3-phenyl-1,2,4-oxadiazol-5-yl)benzamide] | 1160 nM | –

Row | SMILES | EC50 (rat mGluR5; [3]) | further results
18 | CC(C)(C)CCNC(=O)c1ccc(C#Cc2ccccc2)cc1 [N-(3,3-dimethylbutyl)-4-(phenylethynyl)benzamide] | 19.4 nM | –
19 | O=C(NCCc1cccc(Cl)c1)c1ccc(C#Cc2ccccc2)cc1 [N-(3-chlorophenethyl)-4-(phenylethynyl)benzamide] | 206 nM | –
20 | O=C(NCCCO)c1ccc(C#Cc2ccccc2)cc1 [N-(3-hydroxypropyl)-4-(phenylethynyl)benzamide] | 86.2 nM | –
21 | O=C(NCCCN1CCOCC1)c1ccc(C#Cc2ccccc2)cc1 [N-(3-morpholinopropyl)-4-(phenylethynyl)benzamide] | 1230 nM | –
22 | O=C(NCCc1ccc(Br)cc1)c1ccc(C#Cc2ccccc2)cc1 [N-(4-bromophenethyl)-4-(phenylethynyl)benzamide] | 237 nM | –
23 | O=C(NCCc1ccc(Cl)cc1)c1ccc(C#Cc2ccccc2)cc1 [N-(4-chlorophenethyl)-4-(phenylethynyl)benzamide] | 177 nM | –
24 | CC1CCCCN1C(=O)c1ccc(C(=O)Nc2ccc(F)cc2)cc1 (centres unmarked) [N-(4-fluorophenyl)-4-(2-methylpiperidine-1-carbonyl)benzamide] | 3330 nM | –
25 | CC1CCC(NC(=O)c2ccc(C#Cc3ccccc3)cc2)CC1 (centres unmarked) [N-(4-methylcyclohexyl)-4-(phenylethynyl)benzamide] | 76.3 nM | –
26 | O=C(NCC1CCCCC1)c1ccc(C#Cc2ccccc2)cc1 [N-(cyclohexylmethyl)-4-(phenylethynyl)benzamide] | 68.7 nM | –
27 | CCCCNC(=O)c1ccc(C#Cc2ccccc2)cc1 [N-butyl-4-(phenylethynyl)benzamide] | 33.5 nM | –
28 | O=C(NC1CCCC1)c1ccc(C#Cc2ccccc2)cc1 [N-cyclopentyl-4-(phenylethynyl)benzamide] | 2.78 nM | –
29 | CC(C)CCNC(=O)c1ccc(C#Cc2ccccc2)cc1 [N-isopentyl-4-(phenylethynyl)benzamide] | 27.3 nM | –
30 | O=C(c1ccc(C#Cc2ccccc2)cc1)N1CCC(O)(c2ccc(F)cc2)CC1 [drawing 155, (4-(4-fluorophenyl)-4-hydroxypiperidin-1-yl)(4-(phenylethynyl)phenyl)methanone] | 1250 nM | –
31 | O=C(c1ccc(C#Cc2ccccc2)cc1)N1CCC(O)(c2cccc(F)c2)CC1 [drawing 160, (4-(3-fluorophenyl)-4-hydroxypiperidin-1-yl)(4-(phenylethynyl)phenyl)methanone] | 1770 nM | –
32 | COc1ccc(C2(O)CCN(C(=O)c3ccc(C#Cc4ccccc4)cc3)CC2)cc1 [drawing 173, (4-hydroxy-4-(4-methoxyphenyl)piperidin-1-yl)(4-(phenylethynyl)phenyl)methanone] | 2630 nM | –
33 | O=C(c1ccc(C#Cc2ccccc2)cc1)N1CCOCC1 [morpholino(4-(phenylethynyl)phenyl)methanone] | 5.28 nM | –
